Laboratory results from patent publication EP0973746B1, “SUBSTITUTED 3-CYANO QUINOLINES” (Wyeth Holdings Corporation, priority 1997, dated 1998).
In brackets after ≈: the same amount, converted by molar mass. Read-outs that look alike come from different tables or passages of the source.

Key:
A431 [1] = test: Inhibition of cell growth by incorporation of [3H]-thymidine, A431; format: cell-based, human; details: Homo sapiens
Description: (§1) Representative compounds of this invention were evaluated for their ability to inhibit the growth of the cell lines described below in vitro. The inhibition is quantitated by measuring the decrease in the incorporation of radio-labeled thymidine when the cells are grown in the presence of the inhibitor. […] Cells were routinely grown in a humidified incubator in 5% CO2 in air.
(§2) Cells were seeded at 10,000 cells/well in 96 well plates in complete media and allowed to grow to log phase. At this stage the complete media was replaced with media containing 0.5% FBS (for cells growing in 10% FBS) or media lacking epidermal growth factor (EGF) (for cells growing in serum free media). […] Media with test compound was then removed and complete media was added back. The cells were allowed to grow for 18 hours. This is followed by incubation in [^3H]thymidine (1mCi/ml in serum/EGF media) for 4 hours. Cells were lysed in 0.5 M NaOH for at least 30 min at 37°C and radioactivity analyzed.
(§3) The % inhibition of the compound evaluated was determined for at least three different concentrations and the IC50 value evaluated from the dose response curve. […] CPM(control) is in units of counts per minute and is a number expressing the amount of [^3H]thymidine incorporated onto the DNA when cells are grown in the absence of test compound as measured by liquid scintillation counting.

NHEK = test: Inhibition of cell growth by incorporation of [3H]-thymidine, NHEK; format: cell-based, human; details: Homo sapiens, read-out: IC50 NHEK
Description: as §1, §2, §3

HTB161 = test: Inhibition of cancer cell growth as measured by cell number, HTB161; format: cell-based; details: Homo sapiens, read-out: IC50 HTB161
A27805 = test: Inhibition of cancer cell growth as measured by cell number, A27805; format: cell-based; details: Homo sapiens, read-out: IC50 A27805
A2780DDP = test: Inhibition of cancer cell growth as measured by cell number, A2780DDP; format: cell-based; details: Homo sapiens, read-out: IC50 A2780DDP
MIP = test: Inhibition of cancer cell growth as measured by cell number, MIP; format: cell-based; details: Homo sapiens; cell number, Sulforhodamine B, 48 hours exposure; Table 4; read-out: IC50 MIP
SW620 = test: Inhibition of cancer cell growth as measured by cell number, SW620; format: cell-based, human; details: Homo sapiens, SW-620, 48 h, Table 4;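 note: SW620 was included as a cell line with little or no EGFR or HER2/neu expression, in contrast to receptor-overexpressing lines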
Description: (§4) The cell lines were chosen since they overexpressed epidermal growth factor receptor (EGFR) (i.e. A431) or HER2/neu (SKBR3), or had little to no expression of the these receptors (SW620, LOX, MCF7).

COLO205 = test: Inhibition of cancer cell growth as measured by cell number, COLO205; format: cell-based; details: Homo sapiens, read-out: IC50 COLO205
CX1 = test: Inhibition of cancer cell growth as measured by cell number, CX1; format: cell-based; details: Homo sapiens, read-out: IC50 CX1
CACO2 = test: Inhibition of cancer cell growth as measured by cell number, CACO2; format: cell-based; details: Homo sapiens, read-out: IC50 CACO2
HCT15 = test: Inhibition of cancer cell growth as measured by cell number, HCT15; format: cell-based; details: Homo sapiens, read-out: IC50 HCT15
LS174T = test: Inhibition of cancer cell growth as measured by cell number, LS174T; format: cell-based; details: Homo sapiens
SW948 = test: Inhibition of cancer cell growth as measured by cell number, SW948; format: cell-based; details: Homo sapiens, read-out: IC50 SW948
CCL228 = test: Inhibition of cancer cell growth as measured by cell number, CCL228; format: cell-based; details: Homo sapiens, read-out: IC50 CCL228
MCF7 = test: Inhibition of cancer cell growth as measured by cell number, MCF7; format: cell-based, human; details: Homo sapiens, MCF7, 48 h, Table 5;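 note: MCF7 was included as a line with little or no EGFR or HER2/neu expression, in contrast to the receptor-overexpressing lines of the panel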
Description: as §4

B7474 = test: Inhibition of cancer cell growth as measured by cell number, B7474; format: cell-based; details: Homo sapiens, read-out: IC50 B7474
T47D = test: Inhibition of cancer cell growth as measured by cell number, T47D; format: cell-based; details: Homo sapiens
LX1 = test: Inhibition of cancer cell growth as measured by cell number, LX1; format: cell-based; details: Homo sapiens, read-out: IC50 LX1
A549 = test: Inhibition of cancer cell growth as measured by cell number, A549; format: cell-based; details: Homo sapiens, read-out: IC50 A549
LOX = test: Inhibition of cancer cell growth as measured by cell number, LOX; format: cell-based, human; details: Homo sapiens, LOX, 48 h, Table 6;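 note: LOX cells served as a line with low or absent EGFR and HER2/neu expression, in contrast to receptor-overexpressing lines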
Description: as §4

A431 [2] = test: Inhibition of cancer cell growth as measured by cell number, A431; format: cell-based, human; details: Homo sapiens, A-431, 48 h, Table 6;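 note: human A431 line, picked because it overexpresses epidermal growth factor receptor (EGFR)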
Description: as §4

NEC = test: Inhibition of cancer cell growth as measured by cell number, NEC; format: cell-based; details: Homo sapiens, read-out: IC50 NEC
DU145 = test: Inhibition of cancer cell growth as measured by cell number, DU145; format: cell-based; details: Homo sapiens, read-out: IC50 DU145
PC3 = test: Inhibition of cancer cell growth as measured by cell number, PC3; format: cell-based; details: Homo sapiens, read-out: IC50 PC3
LNCAP = test: Inhibition of cancer cell growth as measured by cell number, LNCAP; format: cell-based; details: Homo sapiens
HL60 = test: Inhibition of cancer cell growth as measured by cell number, HL60; format: cell-based; details: Homo sapiens, read-out: IC50 HL60
CCRF-CFM = test: Inhibition of cancer cell growth as measured by cell number, CCRF-CFM; format: cell-based; details: Homo sapiens, read-out: IC50 CCRF-CFM
SKBR3 = test: Inhibition of cancer cell growth as measured by cell number, SKBR3; format: cell-based, human; details: Homo sapiens, Table 7;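 note: SK-BR-3 cells were selected as a line overexpressing HER2/neu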
Description: as §4

[3] = target: recombinant human MEK 1 (MAPKK) and recombinant human ERK2 (MAPK); test: Mitogen Activated Protein Kinase (MAPK) assay, two component coupled MEK 1 / ERK2; format: biochemical; details: separate entries for the same compound = evaluated more than one time;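 note: MEK 1-activated ERK2 phosphorylates MBP or Myc peptide with 33P-ATP, filter capture and scintillation counting, inhibitor preincubated with ERK2 30 min at 0 °C, inhibition relative to uninhibited control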
[4] = target: epidermal growth factor receptor kinase (Homo sapiens, UniProt P00533); test: biochemical
[5] = test system: human epidermoid tumors (A431); test: In vivo inhibition of the growth of human epidermoid tumors (A431); details: 80 mg/kg administered on days 1, 5, and 9, IP
Description: Representative compounds of this invention (listed below) were evaluated in an in vivo standard pharmacological test procedure which measured its ability to inhibit the growth of human epidermoid tumors. […] BALB/c nu/nu female mice (Charles River, Wilmington, MA) were used in this in vivo standard pharmacological test procedure. A unit of 5 X 10^6 cells were injected SC into mice. When tumors attained a mass of between 100 and 150 mg, the mice were randomized into treatment groups (day zero). […] Control animals received no drug. Tumor mass was determined every 7 days [(length X width^2)/2] for 28 days post staging. Relative tumor growth (Mean tumor mass on days 7, 14, 21, and 28 divided by the mean tumor mass on day zero) is determined for each treatment group.

[6] = cell number, Sulforhodamine B, 48 hours exposure, Table 4
[7] = cell number, Sulforhodamine B, 48 hours exposure, Table 6

Sequence of epidermal growth factor receptor kinase (P00533 25-1210): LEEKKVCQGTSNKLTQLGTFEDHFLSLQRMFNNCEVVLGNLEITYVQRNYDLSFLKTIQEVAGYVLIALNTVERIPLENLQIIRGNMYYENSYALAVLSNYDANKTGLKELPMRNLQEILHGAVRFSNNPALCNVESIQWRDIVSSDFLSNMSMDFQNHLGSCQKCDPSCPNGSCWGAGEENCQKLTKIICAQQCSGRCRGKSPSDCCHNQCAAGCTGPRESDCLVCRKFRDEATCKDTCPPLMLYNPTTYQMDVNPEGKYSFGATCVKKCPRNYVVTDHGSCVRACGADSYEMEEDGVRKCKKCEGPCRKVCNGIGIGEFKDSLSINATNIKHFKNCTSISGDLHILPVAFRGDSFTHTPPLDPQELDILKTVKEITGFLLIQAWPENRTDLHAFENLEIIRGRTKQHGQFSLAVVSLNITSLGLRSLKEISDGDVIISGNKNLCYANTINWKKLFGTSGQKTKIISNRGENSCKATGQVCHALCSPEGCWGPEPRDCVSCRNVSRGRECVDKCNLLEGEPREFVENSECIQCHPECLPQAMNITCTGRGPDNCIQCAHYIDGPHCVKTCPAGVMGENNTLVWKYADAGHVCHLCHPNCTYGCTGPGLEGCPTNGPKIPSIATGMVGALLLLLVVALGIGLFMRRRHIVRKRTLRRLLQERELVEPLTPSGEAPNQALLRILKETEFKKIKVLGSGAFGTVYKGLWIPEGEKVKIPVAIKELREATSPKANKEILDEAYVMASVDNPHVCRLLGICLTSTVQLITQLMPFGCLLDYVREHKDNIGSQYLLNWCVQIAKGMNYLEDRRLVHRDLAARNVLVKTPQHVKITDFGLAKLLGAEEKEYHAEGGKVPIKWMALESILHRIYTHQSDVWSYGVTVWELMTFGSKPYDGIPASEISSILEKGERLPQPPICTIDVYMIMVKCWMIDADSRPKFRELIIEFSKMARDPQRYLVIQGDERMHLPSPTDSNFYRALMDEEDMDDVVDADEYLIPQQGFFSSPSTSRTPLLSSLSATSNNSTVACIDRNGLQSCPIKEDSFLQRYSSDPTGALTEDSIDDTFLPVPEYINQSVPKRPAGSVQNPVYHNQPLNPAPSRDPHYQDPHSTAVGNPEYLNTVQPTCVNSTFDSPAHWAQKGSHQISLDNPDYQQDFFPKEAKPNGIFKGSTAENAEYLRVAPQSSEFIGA

`CCCC(=O)Nc1ccc2ncc(C#N)c(Nc3cccc(Br)c3)c2c1` [Example 17, N-[4-[(3-Bromophenyl)amino]-3-cyano-6-quinolinyl] butanamide] gave an IC50 (A431 [1]; A-431, [3H]-thymidine incorporation, A431, read-out: IC50 A431) of 25 µM, an IC50 (NHEK; [3H]-thymidine incorporation) of 9 µM and an IC50 (HTB161; [6]) of 7.89 mg/L (≈ 19.3 µM). For the same molecule, the IC50 (A27805; [6]) was 9.8 mg/L (≈ 23.9 µM), the IC50 (A2780DDP; [6]) was 60.4 mg/L (≈ 147 µM) and the IC50 (MIP) was 100 mg/L (≈ 244 µM). For the same molecule, the IC50 (SW620; cell number, Sulforhodamine B, 48 hours exposure, read-out: IC50 SW620) was over 100 mg/L, the IC50 (COLO205; COLO 205, cell number, Sulforhodamine B, 48 hours exposure, Table 4) was over 100 mg/L and the IC50 (CX1; CX-1, cell number, Sulforhodamine B, 48 hours exposure, Table 4) was 81.9 mg/L (≈ 200 µM). The IC50 (CACO2; Caco-2, cell number, Sulforhodamine B, 48 hours exposure, Table 5) was 5.63 mg/L (≈ 13.8 µM), the IC50 (HCT15; HCT-15, cell number, Sulforhodamine B, 48 hours exposure, Table 5) was 98.9 mg/L (≈ 242 µM) and the IC50 (LS174T; cell number, Sulforhodamine B, 48 hours exposure, Table 5, read-out: IC50 LS174T) was 87 mg/L (≈ 213 µM). The IC50 (SW948; SW948, cell number, Sulforhodamine B, 48 hours exposure, Table 5) was over 100 mg/L, the IC50 (CCL228; cell number, Sulforhodamine B, 48 hours exposure, Table 5) was over 100 mg/L and the IC50 (MCF7; cell number, Sulforhodamine B, 48 hours exposure, read-out: IC50 MCF7) was 68.2 mg/L (≈ 167 µM). The IC50 (B7474; [7]) was 95.7 mg/L (≈ 234 µM), the IC50 (T47D; cell number, Sulforhodamine B, 48 hours exposure, Table 6, read-out: IC50 T47D) was over 100 mg/L and the IC50 (LX1; LX-1, cell number, Sulforhodamine B, 48 hours exposure, Table 6) was over 100 mg/L. It also gave an IC50 (A549; A549, cell number, Sulforhodamine B, 48 hours exposure, Table 6) of over 100 mg/L, an IC50 (LOX; cell number, Sulforhodamine B, 48 hours exposure, read-out: IC50 LOX) of 74.2 mg/L (≈ 181 µM) and an IC50 (A431 [2]; cell number, Sulforhodamine B, 48 hours exposure, read-out: IC50 A431) of 38.1 mg/L (≈ 93 µM). It also gave an IC50 (NEC; [7]) of over 100 mg/L, an IC50 (DU145; DU-145, cell number, Sulforhodamine B, 48 hours exposure, Table 7) of 7.81 mg/L (≈ 19.1 µM) and an IC50 (PC3; PC-3, cell number, Sulforhodamine B, 48 hours exposure, Table 7) of over 100 mg/L. The IC50 (LNCAP; cell number, Sulforhodamine B, 48 hours exposure, Table 7, read-out: IC50 LNCAP) was 90 mg/L (≈ 220 µM), the IC50 (HL60; HL-60, cell number, Sulforhodamine B, 48 hours exposure, Table 7) was over 100 mg/L and the IC50 (CCRF-CFM; cell number, Sulforhodamine B, 48 hours exposure, Table 7) was over 100 mg/L. The IC50 (SKBR3; SK-BR-3, cell number, Sulforhodamine B, 48 hours exposure, read-out: IC50 SKBR3) was 79.7 mg/L (≈ 195 µM), the IC50 [3] was over 100 µM and the IC50 [4] was 9 µM.
In the case of `C=CC(=O)Nc1ccc2ncc(C#N)c(Nc3cccc(Br)c3)c2c1` [Example 18, N-[4-[(3-Bromophenyl)amino]-3-cyano-6-quinolinyl]-2-propenamide], the IC50 (A431 [1]; A-431, read-out: IC50 A431) is reported as 1e-05 µM, the IC50 (NHEK) is reported as 0.007 µM and the IC50 (HTB161; 48 h) is reported as 0.415 mg/L (≈ 1.05 µM). It also gave an IC50 (A27805; 48 h) of 0.628 mg/L (≈ 1.6 µM), an IC50 (A2780DDP; 48 h) of 0.884 mg/L (≈ 2.25 µM) and an IC50 (MIP) of 1.47 mg/L (≈ 3.74 µM). The IC50 (SW620; read-out: IC50 SW620, cell number, Sulforhodamine B, 48 hours exposure) was 1.4 mg/L (≈ 3.55 µM), the IC50 (COLO205; COLO 205, 48 h) was 1.9 mg/L (≈ 4.84 µM) and the IC50 (CX1; CX-1, 48 h) was 1.56 mg/L (≈ 3.97 µM). It also gave an IC50 (CACO2; Caco-2, 48 h) of 0.576 mg/L (≈ 1.46 µM), an IC50 (HCT15; HCT-15, 48 h) of 1.67 mg/L (≈ 4.25 µM) and an IC50 (LS174T; 48 h, read-out: IC50 LS174T) of 1.59 mg/L (≈ 4.05 µM). The IC50 (SW948; SW948, 48 h) was 1.94 mg/L (≈ 4.93 µM), the IC50 (CCL228; 48 h) was 1.17 mg/L (≈ 2.98 µM) and the IC50 (MCF7; read-out: IC50 MCF7, cell number, Sulforhodamine B, 48 hours exposure) was 2.17 mg/L (≈ 5.52 µM). It also gave an IC50 (B7474; 48 h) of 0.152 mg/L (≈ 0.387 µM), an IC50 (T47D; 48 h, read-out: IC50 T47D) of 1.31 mg/L (≈ 3.34 µM) and an IC50 (LX1; LX-1, 48 h) of 1.12 mg/L (≈ 2.84 µM). For the same molecule, the IC50 (A549; A549, 48 h) was 1.61 mg/L (≈ 4.1 µM), the IC50 (LOX; read-out: IC50 LOX, cell number, Sulforhodamine B, 48 hours exposure) was 0.0851 mg/L (≈ 0.216 µM) and the IC50 (A431 [2]; read-out: IC50 A431, cell number, Sulforhodamine B, 48 hours exposure) was 0.249 mg/L (≈ 0.633 µM). The IC50 (NEC; 48 h) was 1.41 mg/L (≈ 3.6 µM), the IC50 (DU145; DU-145, 48 h) was 0.322 mg/L (≈ 0.818 µM) and the IC50 (PC3; PC-3, 48 h) was 2.35 mg/L (≈ 5.97 µM). For the same molecule, the IC50 (LNCAP; 48 h, read-out: IC50 LNCAP) was 0.146 mg/L (≈ 0.372 µM), the IC50 (HL60; HL-60, 48 h) was 1.43 mg/L (≈ 3.63 µM) and the IC50 (CCRF-CFM; 48 h) was 1.04 mg/L (≈ 2.64 µM). For the same molecule, the IC50 (SKBR3; SK-BR-3, 48 h, read-out: IC50 SKBR3, cell number, Sulforhodamine B, 48 hours exposure) was 1.85 mg/L (≈ 4.71 µM), the reduced tumor size ([5]; day 7) was 29% and the reduced tumor size ([5]; day 14, p <0.01) was 45%. The “Tumor growth versus control” value ([5]; days 21 and 28) was “not reduced versus control”, the IC50 [3] was over 100 µM and the IC50 [4] was 2.1e-05 µM.
